Several values for one entry are separate records, joined by “and”; a condition that tells them apart may be missing. Equal entries are not always repeated. Where two headings read alike, the source gives them in different places.
Assays:
[1] = tested on: patients with chronic atrial fibrillation; assay: PETRO phase 2 12-week dose finding study; type: in vivo, human; conditions: 12 weeks
Source text: Primary endpoints were bleeding events and changes in D-dimer. […] Minor bleeding was dose related.

[2] = tested on: patients with atrial fibrillation
Description: PETRO-Ex began while the PETRO study was ongoing and investigators were initially kept blinded to patient treatment group until PETRO was completed. Unblinding investigators to patient treatment was possible thereafter.
Data were summarized descriptively; no hypothesis was to be tested. Events were analyzed on the basis of the treatment at onset. Incidences were reported as number of patients with events as well as normalized to 100 patient-years on the respective treatment.
Written, informed consent was obtained from all patients.
Patients who completed PETRO on 50 mg b.i.d. were switched to 150 mg q.d. upon entry in the PETRO-Ex study (N=93 patients). […] Patients who were down titrated to 50 mg q.d. based on a glomerular filtration rate ≦50 mL/min during PETRO were excluded from the long-term trial; patients down-titrated in other dose levels remained on the q.d. treatment at that dose.
The total exposure reflects both trials, PETRO and PETRO-Ex, together.

[3] = Clinical pharmacokinetics and pharmacodynamics of dabigatran etexilate; type: in vivo; conditions: after dosing
Source text: Ezekowitz M D, et al., Dabigatran with or without concomitant aspirin compared with warfarin alone in patients with nonvalvular atrial fibrillation (PETRO study), Am. […] The PETRO study is described below.
As noted above, management of warfarin therapy is complex, and failure to adequately monitor patients is associated with risk. […] It also interacts with many common foods, drugs and alcohol which alter its therapeutic effect, putting patients at risk of either a bleeding or thrombotic event. Therefore, warfarin therapy requires careful individualized dosing and frequent monitoring. The significant limitations of VKAs have created a need for an oral anticoagulant with a rapid onset of action, minimal drug interactions, and a predictable anticoagulation effect that needs no monitoring.
Peak levels are seen within 2-3 hours of oral administration. […] Steady-state is reached within 2-3 days with a twice daily regimen. […] The remainder undergoes conjugation with glucuronic acid to form acylglucuronides which are excreted primarily in the bile.

[4] = individual patients with LFT abnormalities, one table line per patient (age c0, sex c1), ^# = with concomitant Bilirubin elevation to >2xULN

SMILES: CCCCCCOC(=O)NC(=N)c1ccc(NCc2nc3cc(C(=O)N(CCC(=O)OCC)c4ccccn4)ccc3n2C)cc1 [dabigatran etexilate, 1-methyl-2-[N-[4-(N-n-hexyloxycarbonylamidino)phenyl]aminomethyl]benzimidazol-5-ylcarboxylic acid-N-(2-pyridyl)-N-(2-ethoxycarbonylethyl)amides]
- Major bleeding events ([1]; 300 mg b.i.d. plus ASA groups): 6%
- Major bleeding events, number ([1]; 300 mg b.i.d. plus ASA groups): Four
- Minor bleeding ([1]; 50, 150, 300 mg b.i.d.): dose related
- ALT or AST >2xULN, subjects with event ([2]; 50 mg b.i.d.): 0
- ALT or AST >3xULN and Bili >2xULN within 30 days, subjects with event ([2]; 50 mg b.i.d.): 0
- ALT or AST >3xULN, subjects with event ([2]; 50 mg b.i.d.): 0
- ALT or AST >5xULN, subjects with event ([2]; 50 mg b.i.d.): 0
- Adverse Events leading to premature discontinuation, rate ([2]; 50 mg b.i.d.): 21.3 % per year
- Adverse Events leading to premature discontinuation, subjects with event ([2]; 50 mg b.i.d.): 5
- MI, subjects with event ([2]; 50 mg b.i.d.): 0
- Major Bleeds with aspirin, subjects with event ([2]; 50 mg b.i.d.): 0
- Major Bleeds without aspirin, subjects with event ([2]; 50 mg b.i.d.): 0
- Major Bleeds, subjects with event ([2]; 50 mg b.i.d.): 0
- Other MACE, subjects with event ([2]; 50 mg b.i.d.): 2
- Stroke and Systemic Thromboembolism, subjects with event ([2]; 50 mg b.i.d.): 3
- TIA, subjects with event ([2]; 50 mg b.i.d.): 0
- ALT or AST >2xULN, subjects with event ([2]; 50 mg q.d.): 0
- ALT or AST >3xULN and Bili >2xULN within 30 days, subjects with event ([2]; 50 mg q.d.): 0
- ALT or AST >3xULN, subjects with event ([2]; 50 mg q.d.): 0
- ALT or AST >5xULN, subjects with event ([2]; 50 mg q.d.): 0
- Adverse Events leading to premature discontinuation, subjects with event ([2]; 50 mg q.d.): 0
- MI, subjects with event ([2]; 50 mg q.d.): 0
- Major Bleeds with aspirin, subjects with event ([2]; 50 mg q.d.): 0
- Major Bleeds without aspirin, subjects with event ([2]; 50 mg q.d.): 0
- Major Bleeds, subjects with event ([2]; 50 mg q.d.): 0
- Other MACE, subjects with event ([2]; 50 mg q.d.): 0
- Stroke and Systemic Thromboembolism, subjects with event ([2]; 50 mg q.d.): 0
- TIA, subjects with event ([2]; 50 mg q.d.): 0
- ALT or AST >2xULN, rate ([2]; 150 mg b.i.d.): 3.1 % per year
- ALT or AST >2xULN, subjects with event ([2]; 150 mg b.i.d.): 21
- ALT or AST >3xULN and Bili >2xULN within 30 days, rate ([2]; 150 mg b.i.d.): 0.4 % per year
- ALT or AST >3xULN and Bili >2xULN within 30 days, subjects with event ([2]; 150 mg b.i.d.): 3
- ALT or AST >3xULN, rate ([2]; 150 mg b.i.d.): 1.9 % per year
- ALT or AST >3xULN, subjects with event ([2]; 150 mg b.i.d.): 13
- ALT or AST >5xULN, rate ([2]; 150 mg b.i.d.): 1.0 % per year
- ALT or AST >5xULN, subjects with event ([2]; 150 mg b.i.d.): 7
- Adverse Events leading to premature discontinuation, rate ([2]; 150 mg b.i.d.): 9.8 % per year
- Adverse Events leading to premature discontinuation, subjects with event ([2]; 150 mg b.i.d.): 67
- MI, subjects with event ([2]; 150 mg b.i.d.): 6
- Major Bleeds with aspirin, rate ([2]; 150 mg b.i.d.): 8.7 % per year
- Major Bleeds with aspirin, subjects with event ([2]; 150 mg b.i.d.): 11
- Major Bleeds without aspirin, rate ([2]; 150 mg b.i.d.): 3.2 % per year
- Major Bleeds without aspirin, subjects with event ([2]; 150 mg b.i.d.): 18
- Major Bleeds, rate ([2]; 150 mg b.i.d.): 4.2 % per year
- Major Bleeds, subjects with event ([2]; 150 mg b.i.d.): 29
- Other MACE, subjects with event ([2]; 150 mg b.i.d.): 7
- Stroke and Systemic Thromboembolism, subjects with event ([2]; 150 mg b.i.d.): 7
- TIA, subjects with event ([2]; 150 mg b.i.d.): 1
- ALT or AST >2xULN, rate ([2]; 150 mg q.d.): 3.4 % per year
- ALT or AST >2xULN, subjects with event ([2]; 150 mg q.d.): 2
- ALT or AST >3xULN and Bili >2xULN within 30 days, subjects with event ([2]; 150 mg q.d.): 0
- ALT or AST >3xULN, subjects with event ([2]; 150 mg q.d.): 0
- ALT or AST >5xULN, subjects with event ([2]; 150 mg q.d.): 0
- Adverse Events leading to premature discontinuation, rate ([2]; 150 mg q.d.): 13.7 % per year
- Adverse Events leading to premature discontinuation, subjects with event ([2]; 150 mg q.d.): 8
- MI, subjects with event ([2]; 150 mg q.d.): 0
- Major Bleeds with aspirin, subjects with event ([2]; 150 mg q.d.): 0
- Major Bleeds without aspirin, rate ([2]; 150 mg q.d.): 6.5 % per year
- Major Bleeds without aspirin, subjects with event ([2]; 150 mg q.d.): 3
- Major Bleeds, rate ([2]; 150 mg q.d.): 5.1 % per year
- Major Bleeds, subjects with event ([2]; 150 mg q.d.): 3
- Other MACE, subjects with event ([2]; 150 mg q.d.): 0
- Stroke and Systemic Thromboembolism, subjects with event ([2]; 150 mg q.d.): 3
- TIA, subjects with event ([2]; 150 mg q.d.): 0
- ALT or AST >2xULN, rate ([2]; 300 mg b.i.d.): 4.9 % per year
- ALT or AST >2xULN, subjects with event ([2]; 300 mg b.i.d.): 4
- ALT or AST >3xULN and Bili >2xULN within 30 days, subjects with event ([2]; 300 mg b.i.d.): 0
- ALT or AST >3xULN, rate ([2]; 300 mg b.i.d.): 2.4 % per year
- ALT or AST >3xULN, subjects with event ([2]; 300 mg b.i.d.): 2
- ALT or AST >5xULN, rate ([2]; 300 mg b.i.d.): 1.2 % per year
- ALT or AST >5xULN, subjects with event ([2]; 300 mg b.i.d.): 1
- Adverse Events leading to premature discontinuation, rate ([2]; 300 mg b.i.d.): 25.6 % per year
- Adverse Events leading to premature discontinuation, subjects with event ([2]; 300 mg b.i.d.): 21
- MI, subjects with event ([2]; 300 mg b.i.d.): 0
- Major Bleeds with aspirin, rate ([2]; 300 mg b.i.d.): 32.7 % per year
- Major Bleeds with aspirin, subjects with event ([2]; 300 mg b.i.d.): 6
- Major Bleeds without aspirin, rate ([2]; 300 mg b.i.d.): 6.3 % per year
- Major Bleeds without aspirin, subjects with event ([2]; 300 mg b.i.d.): 4
- Major Bleeds, rate ([2]; 300 mg b.i.d.): 12.2 % per year
- Major Bleeds, subjects with event ([2]; 300 mg b.i.d.): 10
- Other MACE, subjects with event ([2]; 300 mg b.i.d.): 1
- Stroke and Systemic Thromboembolism, subjects with event ([2]; 300 mg b.i.d.): 1
- TIA, subjects with event ([2]; 300 mg b.i.d.): 0
- ALT or AST >2xULN, rate ([2]; 300 mg q.d.): 1.5 % per year
- ALT or AST >2xULN, subjects with event ([2]; 300 mg q.d.): 3
- ALT or AST >3xULN and Bili >2xULN within 30 days, rate ([2]; 300 mg q.d.): 0.5 % per year
- ALT or AST >3xULN and Bili >2xULN within 30 days, subjects with event ([2]; 300 mg q.d.): 1
- ALT or AST >3xULN, rate ([2]; 300 mg q.d.): 1.5 % per year
- ALT or AST >3xULN, subjects with event ([2]; 300 mg q.d.): 3
- ALT or AST >5xULN, rate ([2]; 300 mg q.d.): 1.5 % per year
- ALT or AST >5xULN, subjects with event ([2]; 300 mg q.d.): 3
- Adverse Events leading to premature discontinuation, rate ([2]; 300 mg q.d.): 9.6 % per year
- Adverse Events leading to premature discontinuation, subjects with event ([2]; 300 mg q.d.): 19
- MI, subjects with event ([2]; 300 mg q.d.): 1
- Major Bleeds with aspirin, rate ([2]; 300 mg q.d.): 3.6 % per year
- Major Bleeds with aspirin, subjects with event ([2]; 300 mg q.d.): 2
- Major Bleeds without aspirin, rate ([2]; 300 mg q.d.): 2.1 % per year
- Major Bleeds without aspirin, subjects with event ([2]; 300 mg q.d.): 3
- Major Bleeds, rate ([2]; 300 mg q.d.): 2.5 % per year
- Major Bleeds, subjects with event ([2]; 300 mg q.d.): 5
- Other MACE, subjects with event ([2]; 300 mg q.d.): 1
- Stroke and Systemic Thromboembolism, subjects with event ([2]; 300 mg q.d.): 5
- TIA, subjects with event ([2]; 300 mg q.d.): 0
- Serious adverse events: cardiac disorders, number of patients ([2]; PETRO-Ex): 80
- Serious adverse events: gastrointestinal disorders, number of patients ([2]; PETRO-Ex): 28
- Serious adverse events: infections, number of patients ([2]; PETRO-Ex): 34
- Serious adverse events: nervous system disorders, number of patients ([2]; PETRO-Ex): 33
- Serious adverse events, number of patients ([2]; PETRO-Ex, including bleeding and thrombotic events): 184
- ALT or AST >2xULN, rate ([2]; Total (all doses)): 2.9 % per year
- ALT or AST >2xULN, subjects with event ([2]; Total (all doses)): 30
- ALT or AST >3xULN and Bili >2xULN within 30 days, rate ([2]; Total (all doses)): 0.4 % per year
- ALT or AST >3xULN and Bili >2xULN within 30 days, subjects with event ([2]; Total (all doses)): four
- ALT or AST >3xULN, rate ([2]; Total (all doses)): 1.7 % per year
- ALT or AST >3xULN, subjects with event ([2]; Total (all doses)): 18
- ALT or AST >5xULN, rate ([2]; Total (all doses)): 1.1 % per year
- ALT or AST >5xULN, subjects with event ([2]; Total (all doses)): 11
- Adverse Events leading to premature discontinuation, rate ([2]; Total (all doses)): 11.5 % per year
- Adverse Events leading to premature discontinuation, subjects with event ([2]; Total (all doses)): 120
- MI, subjects with event ([2]; Total (all doses)): 7
- Major Bleeds with aspirin, rate ([2]; Total (all doses)): 8.5 % per year
- Major Bleeds with aspirin, subjects with event ([2]; Total (all doses)): 19
- Major Bleeds without aspirin, rate ([2]; Total (all doses)): 3.2 % per year
- Major Bleeds without aspirin, subjects with event ([2]; Total (all doses)): 26
- Major Bleeds, rate ([2]; Total (all doses)): 4.2 % per year
- Major Bleeds, subjects with event ([2]; Total (all doses)): 44
- Other MACE, subjects with event ([2]; Total (all doses)): 11
- Stroke and Systemic Thromboembolism, subjects with event ([2]; Total (all doses)): 20
- TIA, subjects with event ([2]; Total (all doses)): 1
- ALT or AST >3xULN and Bili >2xULN within 30 days, subjects with event ([2]; Total (all doses), listed as Dabigatran etexilate): 4
- Risk ratio of bleeding event rate on concomitant aspirin vs. without ([2]; in vivo): 2.70
- Final Outcome/Comment of LFT abnormality ([2]; individual patients with LFT abnormalities, one table line per patient (age c0, sex c1)): Recovered
- LFT abnormality ALT/ULN [2, 4]: >5x xULN (4×) and >5x^# xULN (2×) and >3x xULN (5×) and >3x^# xULN
- LFT abnormality AST/ULN [2, 4]: >5x^# xULN (4×) and >5x xULN (4×) and >3x xULN (5×)
- Final Outcome/Comment of LFT abnormality ([2]; individual patients with LFT abnormalities, one table line per patient (age c0, sex c1), listed as Dabigatran etexilate): Fatal
- Onset of anticoagulant effect [3]: within one hour
